This is an account of results in US12247045B2, “MAP4K4 inhibitors” (Imperial College Innovations Limited, priority 2018, dated 2025).

Like-named read-outs stand apart in the source and are kept apart here.

What all share (type): biochemical
Assay [1] addresses T1, human MAP4K4 kinase domain (Homo sapiens, UniProt O95819).
T1 construct: 0.5 nM human MAP4K4 kinase domain (Invitrogen); purchased Invitrogen
The assay can be described thus: MAP4K4 kinase activity, CisBio HTRF Transcreener ADP assay. The essentials:
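HTRF Transcreener ADP read-out (665/620 nm ratio) of ADP formed by 0.5 nM kinase domain with 1 μM biotin-myelin basic protein substrate and ATP at Km (10 μM), 1% DMSO, 2 h reaction. IC50 values binned as A ≤100 nM, B 100 nM–1 μM, C >1 μM.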

For a further assay, the target named is MINK1/MAP4K6 (Homo sapiens, UniProt Q8N4C8). The assay can be described thus: Kinase selectivity panel, MINK1/MAP4K6. The conditions noted are these: read-out: pIC50 MINK1/MAP4K6 (converted). The text has this:
(§1) The data in Table 42 also provides the fold selectivity of the two compounds in favour of MAP4K4 over the tested kinase. The fold selectivity is indicated in parenthesis.

Another assay addresses TNIK/MAP4K7 (Homo sapiens, UniProt Q9UKE5). The assay can be described thus: Kinase selectivity panel, TNIK/MAP4K7. The conditions noted are these: read-out: pIC50 TNIK/MAP4K7 (converted).
Source text: as §1

A further assay addresses T2, GCK/MAP4K2 (Homo sapiens, UniProt Q12851).
T2 sequence (Q12851 1-820): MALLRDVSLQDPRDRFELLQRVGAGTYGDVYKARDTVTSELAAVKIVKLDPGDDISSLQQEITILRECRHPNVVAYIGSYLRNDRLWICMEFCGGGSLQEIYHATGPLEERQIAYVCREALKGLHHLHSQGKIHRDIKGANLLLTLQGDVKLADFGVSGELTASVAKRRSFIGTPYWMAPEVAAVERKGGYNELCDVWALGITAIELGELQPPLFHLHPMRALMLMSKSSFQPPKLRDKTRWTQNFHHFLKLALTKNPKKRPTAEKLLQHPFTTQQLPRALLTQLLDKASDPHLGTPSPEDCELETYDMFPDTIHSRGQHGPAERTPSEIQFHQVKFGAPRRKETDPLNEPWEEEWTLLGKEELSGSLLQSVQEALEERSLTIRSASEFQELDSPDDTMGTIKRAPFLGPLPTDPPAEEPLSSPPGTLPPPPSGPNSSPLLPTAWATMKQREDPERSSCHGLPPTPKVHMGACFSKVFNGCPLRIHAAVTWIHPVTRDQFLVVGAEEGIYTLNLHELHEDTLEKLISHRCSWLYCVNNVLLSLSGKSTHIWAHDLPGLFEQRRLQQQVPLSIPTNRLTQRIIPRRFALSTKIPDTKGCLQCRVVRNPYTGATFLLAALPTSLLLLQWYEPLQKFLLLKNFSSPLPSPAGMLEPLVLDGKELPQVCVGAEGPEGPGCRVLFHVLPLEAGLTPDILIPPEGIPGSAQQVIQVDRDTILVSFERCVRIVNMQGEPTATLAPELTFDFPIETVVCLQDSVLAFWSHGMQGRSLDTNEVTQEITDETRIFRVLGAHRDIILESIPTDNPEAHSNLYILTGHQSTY
As to the kind of experiment: Kinase selectivity panel, GCK/MAP4K2.
Source text: as §1

The target in another assay is T3, GLK/MAP4K3 (Homo sapiens, UniProt Q8IVH8).
T3 sequence (Q8IVH8 1-894): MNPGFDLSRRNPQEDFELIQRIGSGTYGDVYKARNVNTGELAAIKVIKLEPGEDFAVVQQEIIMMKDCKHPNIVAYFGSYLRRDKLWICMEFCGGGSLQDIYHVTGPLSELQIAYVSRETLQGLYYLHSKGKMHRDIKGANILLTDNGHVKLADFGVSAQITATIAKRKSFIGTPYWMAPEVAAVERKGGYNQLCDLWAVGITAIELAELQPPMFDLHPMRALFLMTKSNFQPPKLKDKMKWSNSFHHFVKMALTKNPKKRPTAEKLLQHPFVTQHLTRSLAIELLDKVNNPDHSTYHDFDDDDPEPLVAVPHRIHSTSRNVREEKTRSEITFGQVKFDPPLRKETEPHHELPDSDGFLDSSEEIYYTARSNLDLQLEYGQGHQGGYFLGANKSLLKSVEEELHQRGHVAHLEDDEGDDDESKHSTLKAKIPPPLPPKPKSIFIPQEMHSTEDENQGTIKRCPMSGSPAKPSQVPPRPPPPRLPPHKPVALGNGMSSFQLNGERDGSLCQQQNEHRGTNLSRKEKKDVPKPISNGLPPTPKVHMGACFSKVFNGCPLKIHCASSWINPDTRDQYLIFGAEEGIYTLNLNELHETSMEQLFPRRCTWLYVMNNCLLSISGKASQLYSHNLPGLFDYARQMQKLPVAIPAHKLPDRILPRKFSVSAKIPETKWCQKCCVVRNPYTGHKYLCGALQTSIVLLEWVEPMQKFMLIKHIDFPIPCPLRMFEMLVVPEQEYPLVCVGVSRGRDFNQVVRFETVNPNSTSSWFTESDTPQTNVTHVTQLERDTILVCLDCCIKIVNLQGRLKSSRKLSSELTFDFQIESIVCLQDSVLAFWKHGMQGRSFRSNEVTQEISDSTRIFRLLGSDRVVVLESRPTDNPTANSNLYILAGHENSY
The assay can be described thus: Kinase selectivity panel, GLK/MAP4K3. The conditions noted are these: in favour of MAP4K4.
Source text: as §1

The next assay addresses KHS/MAP4K5 (Homo sapiens, UniProt Q9Y4K4). As to the kind of experiment: Kinase selectivity panel, KHS/MAP4K5.
Source text: as §1

A further assay addresses Aurora B (Homo sapiens, UniProt Q96GD4). As to the kind of experiment: Kinase selectivity panel, Aurora B. The settings on record: in favour of MAP4K4.
Source text: as §1

A further assay concerns the target MLK1/MAP3K9 (Homo sapiens, UniProt P80192). The assay can be described thus: Kinase selectivity panel, MLK1/MAP3K9.
Source text: as §1

The next assay addresses MLK3/MAP3K11 (Homo sapiens, UniProt Q16584). As to the kind of experiment: Kinase selectivity panel, MLK3/MAP3K11.
Source text: as §1

The target of a further assay is T4, NUAK1 (Homo sapiens, UniProt O60285).
T4 sequence (O60285 1-661): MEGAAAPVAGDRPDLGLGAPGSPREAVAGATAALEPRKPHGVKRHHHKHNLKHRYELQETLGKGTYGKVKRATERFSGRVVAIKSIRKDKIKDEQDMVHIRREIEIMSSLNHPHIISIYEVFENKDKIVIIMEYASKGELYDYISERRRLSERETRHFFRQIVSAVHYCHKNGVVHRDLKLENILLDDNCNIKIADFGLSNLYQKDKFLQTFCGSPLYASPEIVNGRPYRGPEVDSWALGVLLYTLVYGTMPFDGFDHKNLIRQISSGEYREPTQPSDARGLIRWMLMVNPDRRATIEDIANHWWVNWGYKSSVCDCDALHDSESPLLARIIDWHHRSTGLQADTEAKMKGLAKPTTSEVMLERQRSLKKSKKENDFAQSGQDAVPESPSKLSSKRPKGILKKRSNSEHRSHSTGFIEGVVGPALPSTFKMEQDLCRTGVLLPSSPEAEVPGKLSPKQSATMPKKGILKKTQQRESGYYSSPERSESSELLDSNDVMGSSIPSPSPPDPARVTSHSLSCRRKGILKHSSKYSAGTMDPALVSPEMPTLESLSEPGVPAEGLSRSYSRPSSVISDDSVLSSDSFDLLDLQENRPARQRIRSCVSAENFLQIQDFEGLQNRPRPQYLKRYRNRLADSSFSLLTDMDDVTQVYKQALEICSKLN
The assay can be described thus: Kinase selectivity panel, NUAK1.
Source text: as §1

Chain of KHS/MAP4K5 (Q9Y4K4 whole entry): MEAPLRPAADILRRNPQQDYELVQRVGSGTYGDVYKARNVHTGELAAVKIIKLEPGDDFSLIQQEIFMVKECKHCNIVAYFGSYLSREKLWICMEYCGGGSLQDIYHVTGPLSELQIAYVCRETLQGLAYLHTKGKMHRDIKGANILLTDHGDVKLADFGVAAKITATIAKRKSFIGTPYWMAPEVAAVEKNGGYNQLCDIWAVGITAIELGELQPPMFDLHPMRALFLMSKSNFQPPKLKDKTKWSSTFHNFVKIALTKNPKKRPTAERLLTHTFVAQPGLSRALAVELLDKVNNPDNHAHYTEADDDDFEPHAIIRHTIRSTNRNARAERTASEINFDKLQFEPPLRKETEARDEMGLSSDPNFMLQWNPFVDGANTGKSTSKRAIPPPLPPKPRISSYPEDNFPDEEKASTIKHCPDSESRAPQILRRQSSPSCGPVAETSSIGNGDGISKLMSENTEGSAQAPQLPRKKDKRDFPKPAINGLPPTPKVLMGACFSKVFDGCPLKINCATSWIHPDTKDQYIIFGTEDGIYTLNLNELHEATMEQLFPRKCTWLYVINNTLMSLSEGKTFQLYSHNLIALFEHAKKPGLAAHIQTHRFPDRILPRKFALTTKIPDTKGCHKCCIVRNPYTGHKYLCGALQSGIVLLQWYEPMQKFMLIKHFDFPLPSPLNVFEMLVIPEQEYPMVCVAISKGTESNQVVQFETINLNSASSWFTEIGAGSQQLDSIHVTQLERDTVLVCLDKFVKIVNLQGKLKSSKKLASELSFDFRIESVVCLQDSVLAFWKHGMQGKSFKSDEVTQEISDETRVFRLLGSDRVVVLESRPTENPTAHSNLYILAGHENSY
T1 sequence (O95819 25-289 limits assumed): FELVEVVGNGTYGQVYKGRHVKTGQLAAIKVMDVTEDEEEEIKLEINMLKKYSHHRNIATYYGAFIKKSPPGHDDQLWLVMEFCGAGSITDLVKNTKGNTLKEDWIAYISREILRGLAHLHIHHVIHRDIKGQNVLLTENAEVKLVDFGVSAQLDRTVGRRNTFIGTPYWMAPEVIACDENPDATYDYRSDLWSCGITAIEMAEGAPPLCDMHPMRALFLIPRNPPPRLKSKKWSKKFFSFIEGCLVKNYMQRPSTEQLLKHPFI
Chain of MLK3/MAP3K11 (Q16584 whole entry): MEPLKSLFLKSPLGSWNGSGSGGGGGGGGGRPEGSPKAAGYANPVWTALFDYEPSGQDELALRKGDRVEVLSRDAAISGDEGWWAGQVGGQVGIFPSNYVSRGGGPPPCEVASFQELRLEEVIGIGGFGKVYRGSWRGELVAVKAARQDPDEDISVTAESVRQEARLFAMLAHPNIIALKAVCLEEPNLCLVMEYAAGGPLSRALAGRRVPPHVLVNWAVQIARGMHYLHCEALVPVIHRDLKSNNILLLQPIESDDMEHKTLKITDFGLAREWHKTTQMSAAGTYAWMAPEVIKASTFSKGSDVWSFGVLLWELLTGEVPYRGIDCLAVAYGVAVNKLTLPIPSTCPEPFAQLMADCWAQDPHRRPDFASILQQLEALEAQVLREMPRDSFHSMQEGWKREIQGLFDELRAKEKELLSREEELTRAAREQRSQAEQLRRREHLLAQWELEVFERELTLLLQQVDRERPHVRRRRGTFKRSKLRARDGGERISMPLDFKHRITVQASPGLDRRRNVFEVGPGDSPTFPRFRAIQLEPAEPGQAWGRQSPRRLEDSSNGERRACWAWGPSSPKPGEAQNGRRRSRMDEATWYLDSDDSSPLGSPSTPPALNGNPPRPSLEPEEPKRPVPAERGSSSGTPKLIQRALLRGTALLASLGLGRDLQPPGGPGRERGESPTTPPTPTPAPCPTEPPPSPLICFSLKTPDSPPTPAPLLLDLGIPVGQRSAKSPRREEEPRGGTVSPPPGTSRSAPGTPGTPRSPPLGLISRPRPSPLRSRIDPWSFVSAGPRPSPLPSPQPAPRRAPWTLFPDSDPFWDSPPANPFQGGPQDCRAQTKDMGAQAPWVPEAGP
Chain of MLK1/MAP3K9 (P80192 whole entry): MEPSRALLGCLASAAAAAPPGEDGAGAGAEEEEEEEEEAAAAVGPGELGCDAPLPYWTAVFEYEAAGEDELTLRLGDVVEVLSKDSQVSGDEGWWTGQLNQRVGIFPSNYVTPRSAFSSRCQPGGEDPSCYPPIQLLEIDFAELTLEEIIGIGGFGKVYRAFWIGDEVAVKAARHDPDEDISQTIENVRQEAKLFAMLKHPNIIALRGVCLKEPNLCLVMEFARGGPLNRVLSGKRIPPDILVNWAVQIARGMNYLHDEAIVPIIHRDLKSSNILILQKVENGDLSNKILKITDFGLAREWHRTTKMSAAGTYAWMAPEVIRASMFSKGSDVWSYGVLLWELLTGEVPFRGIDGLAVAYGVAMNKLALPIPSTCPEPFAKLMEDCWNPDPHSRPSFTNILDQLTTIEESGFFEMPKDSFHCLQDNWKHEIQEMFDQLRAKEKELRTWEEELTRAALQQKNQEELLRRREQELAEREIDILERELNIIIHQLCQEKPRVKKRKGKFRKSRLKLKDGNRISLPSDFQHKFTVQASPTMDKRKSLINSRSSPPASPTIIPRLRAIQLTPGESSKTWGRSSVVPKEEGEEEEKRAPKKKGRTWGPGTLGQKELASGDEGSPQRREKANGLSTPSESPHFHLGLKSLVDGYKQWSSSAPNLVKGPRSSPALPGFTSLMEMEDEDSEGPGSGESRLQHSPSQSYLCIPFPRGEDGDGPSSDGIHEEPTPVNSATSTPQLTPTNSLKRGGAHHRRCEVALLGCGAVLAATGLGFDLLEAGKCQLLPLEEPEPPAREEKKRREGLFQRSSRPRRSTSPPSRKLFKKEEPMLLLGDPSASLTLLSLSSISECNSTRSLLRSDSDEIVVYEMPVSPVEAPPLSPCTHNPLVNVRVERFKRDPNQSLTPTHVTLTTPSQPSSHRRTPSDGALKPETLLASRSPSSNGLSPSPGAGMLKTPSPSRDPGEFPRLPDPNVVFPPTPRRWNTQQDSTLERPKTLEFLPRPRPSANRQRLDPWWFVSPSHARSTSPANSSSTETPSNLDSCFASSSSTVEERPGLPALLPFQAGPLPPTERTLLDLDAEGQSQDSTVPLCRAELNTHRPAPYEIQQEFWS
Chain of MINK1/MAP4K6 (Q8N4C8 whole entry): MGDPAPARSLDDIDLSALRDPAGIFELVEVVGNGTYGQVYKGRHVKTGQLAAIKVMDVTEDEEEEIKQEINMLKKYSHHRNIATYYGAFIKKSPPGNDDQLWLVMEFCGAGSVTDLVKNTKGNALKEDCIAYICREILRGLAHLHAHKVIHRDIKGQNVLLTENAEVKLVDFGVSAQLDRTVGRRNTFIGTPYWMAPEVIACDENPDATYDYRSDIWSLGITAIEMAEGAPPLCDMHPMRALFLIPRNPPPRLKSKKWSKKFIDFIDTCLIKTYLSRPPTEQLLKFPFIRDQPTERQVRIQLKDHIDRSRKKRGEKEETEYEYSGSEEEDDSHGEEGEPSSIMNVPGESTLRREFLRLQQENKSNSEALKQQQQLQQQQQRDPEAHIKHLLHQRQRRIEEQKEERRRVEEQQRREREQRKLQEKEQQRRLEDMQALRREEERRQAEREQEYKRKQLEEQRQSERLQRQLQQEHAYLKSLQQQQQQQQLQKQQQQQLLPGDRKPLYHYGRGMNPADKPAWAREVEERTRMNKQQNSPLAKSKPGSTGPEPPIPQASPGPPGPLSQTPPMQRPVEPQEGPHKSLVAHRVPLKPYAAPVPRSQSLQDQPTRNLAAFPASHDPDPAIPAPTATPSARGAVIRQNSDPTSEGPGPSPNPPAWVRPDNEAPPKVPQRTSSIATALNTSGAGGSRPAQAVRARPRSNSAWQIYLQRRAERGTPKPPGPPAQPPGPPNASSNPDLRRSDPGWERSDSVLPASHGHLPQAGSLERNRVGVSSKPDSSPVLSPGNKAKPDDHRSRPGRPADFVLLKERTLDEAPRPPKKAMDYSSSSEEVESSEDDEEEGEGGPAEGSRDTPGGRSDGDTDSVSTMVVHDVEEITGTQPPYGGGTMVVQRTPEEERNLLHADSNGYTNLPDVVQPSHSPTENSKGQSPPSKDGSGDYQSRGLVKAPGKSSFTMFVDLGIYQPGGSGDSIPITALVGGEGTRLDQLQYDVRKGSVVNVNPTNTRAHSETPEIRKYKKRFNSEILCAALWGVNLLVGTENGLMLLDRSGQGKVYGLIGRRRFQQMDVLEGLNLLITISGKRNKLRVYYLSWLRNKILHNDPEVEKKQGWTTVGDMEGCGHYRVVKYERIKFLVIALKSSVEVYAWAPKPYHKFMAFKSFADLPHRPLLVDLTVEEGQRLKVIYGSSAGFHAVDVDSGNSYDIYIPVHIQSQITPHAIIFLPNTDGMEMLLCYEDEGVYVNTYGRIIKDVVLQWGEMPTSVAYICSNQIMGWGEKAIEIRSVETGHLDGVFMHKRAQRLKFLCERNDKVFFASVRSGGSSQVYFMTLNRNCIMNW
Chain of Aurora B (Q96GD4 whole entry): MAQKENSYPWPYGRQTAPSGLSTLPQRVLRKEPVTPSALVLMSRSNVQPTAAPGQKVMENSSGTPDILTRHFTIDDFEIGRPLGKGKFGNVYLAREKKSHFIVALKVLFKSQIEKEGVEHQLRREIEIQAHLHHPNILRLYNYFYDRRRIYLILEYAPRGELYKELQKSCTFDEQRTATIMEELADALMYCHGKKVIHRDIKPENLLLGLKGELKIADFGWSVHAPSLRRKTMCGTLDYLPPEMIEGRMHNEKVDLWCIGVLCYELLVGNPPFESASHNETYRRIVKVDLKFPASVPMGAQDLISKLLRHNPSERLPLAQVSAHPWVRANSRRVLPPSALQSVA

In the case of `COCCOc1ccc(-c2cn(-c3cccc(F)c3)c3nc[nH]c(=O)c23)cn1` [Ex-29], the IC50 was ≤ 100 nM in assay [1] (IC50 category, ATP at Km (10 μM), 0.5 nM kinase domain, 2 h, read-out: MAP4K4); 20 nM in assay [1] (read-out: pIC50 MAP4K4 (converted)); 12.6 nM on MINK1/MAP4K6; 31.6 nM on TNIK/MAP4K7; 1000 nM on GCK/MAP4K2 (read-out: pIC50 GCK/MAP4K2 (converted)); 1000 nM on KHS/MAP4K5 (read-out: pIC50 KHS/MAP4K5 (converted)). Besides, the IC50 is 398 nM on MLK1/MAP3K9 (read-out: pIC50 MLK1/MAP3K9 (converted)), 501 nM at MLK3/MAP3K11 (read-out: pIC50 MLK3/MAP3K11 (converted)) and 316 nM at NUAK1 (read-out: pIC50 NUAK1 (converted)). Also, the “fold selectivity MAP4K4 over GCK/MAP4K2” value on GCK/MAP4K2 (in favour of MAP4K4) was “(50) fold”. Besides, the “fold selectivity MAP4K4 over GLK/MAP4K3” value on GLK/MAP4K3 is given as “(>1000) fold”. In addition, the “fold selectivity MAP4K4 over KHS/MAP4K5” value at KHS/MAP4K5 (in favour of MAP4K4) was “(50) fold”. Further, the “fold selectivity MAP4K4 over Aurora B” value at Aurora B is given as “(>1000) fold”. Further, the “fold selectivity MAP4K4 over MLK1/MAP3K9” value on MLK1/MAP3K9 (in favour of MAP4K4) is “(20) fold”. For the same compound, on MLK3/MAP3K11 (in favour of MAP4K4), the “fold selectivity MAP4K4 over MLK3/MAP3K11” value is “(25) fold”. In addition, the “fold selectivity MAP4K4 over NUAK1” value at NUAK1 (in favour of MAP4K4) is “(16) fold”.
